# Test results from patent US4156011A, “Sulphur- and oxygen-containing diaryl compounds” (priority 1974, dated 1979).
# Counter-ions that a name gives are not always drawn. Like-named read-outs stand apart in the source and are kept apart here.
# Assays:
# [1] = Reduction of lipids and cholesterol in rats treated orally; format: in vivo; conditions: for inhibition in vivo at 20 mg/kg: oral 20 mg/kg
# [2] = Hypo-lipidaemic and hypo-cholesterolaemic action of other products (Table V); format: in vivo, rats; conditions: Rattus norvegicus, 96 h; for change in vivo at 10 mg/kg: oral 10 mg/kg for 4 days; for change in vivo at 100 mg/kg: oral 100 mg/kg for 4 days
# Source text: The results of the anti-aggregation test and of the hypo-[…] action and hypo-cholesterolaemic action tests of other products of the invention have been […] Table V which follows, the code used being the following (for each dose shown): […]
# [3] = Solubility of the isolated product; conditions: water
# [4] = test system: blood platelet aggregation; experiment: Anti-aggregation action in rats (graded / in words); format: in vivo; set-up: key to Anti-aggregation action: -: zero activity; +: significant activity; ++: intense activity; +++: very intense activity; conditions: oral 100 mg/kg for 4 days
# Source text: (b) by ADP: the inhibition of aggregation (that is to say the % transmission).
# [5] = test system: platelets (aggregation induced by collagen); experiment: Anti-aggregation action, platelet aggregation induced by collagen; format: in vivo, male Wistar rats; conditions: oral 200 mg/kg, 4 days; collagen/acetic acid diluted 1/10
# Method: (a) by collagen: the inhibition of aggregation (which corresponds to the % transmission), the latency period and the speed; and
# In Table IV which follows have been shown the results relating to the anti-aggregation action of some products on the blood of male Wistar rats, the aggregating agents used being collagen/acetic acid diluted 1/10, and ADP at 1 μM.
# [6] = read-out: Total lipids (change)
# [7] = normal diet, oral 50 mg/kg daily, 3 and 5 days
compound,measurement,setting,value
"CC(Sc1ccc(Sc2ccc(Cl)cc2)cc1)C(=O)OCCSCCCCCCCCCCSCCOC(=O)C(C)Sc1ccc(Sc2ccc(Cl)cc2)cc1 (racemic) [CRL 40,398, 3,14-Dithia-1,16-hexadecyl di-(±)-{2-[p-(p-chlorophenylthio)-phenylthio]-propionate}]",change in the cholesterol content (in words),"[1]; oral 100 mg/kg, 4 days",no change in the cholesterol content
same,reduction in the (total) lipids,"[1]; oral 100 mg/kg, 4 days",17%
"CC(COC(=O)C(C)(C)Sc1ccc(Sc2ccc(Cl)cc2)cc1)SCCCCCCCCCCSC(C)COC(=O)C(C)(C)Sc1ccc(Sc2ccc(Cl)cc2)cc1 (racemic) [CRL 40,403, (±)-2,15-Dimethyl-3,14-dithia-1,16-hexadecyl di-{2-[p-(p-chlorophenylthio)-phenylthio]-2-methylpropionate}]",inhibition in vivo at 100 mg/kg,"[1]; Rattus norvegicus, 96 h, oral 100 mg/kg, 4 days",32%
same,reduction in the (total) lipids,"[1]; oral 100 mg/kg, 4 days",10%
"CC(C)(Oc1ccc(Sc2ccc(Cl)cc2)cc1)C(=O)OCCSCCCCCCCCCCSCCOC(=O)C(C)(C)Oc1ccc(Sc2ccc(Cl)cc2)cc1 [CRL 40,253, 3,14-Dithia-1,16-hexadecyl di-[4-(4-chlorophenylthio)-phenoxyisobutyrate]]",change in vivo at 10 mg/kg,[2]; read-out: Cholesterol (change),-40%
same,change in vivo at 10 mg/kg,[2]; [6],-40%
same,solubility in water (in words),[3],insoluble in water
"CC(CO)Oc1ccc(Oc2ccc(Cl)cc2)cc1 (racemic) [CRL 40,300, (±)-2-[4-(4-Chlorophenoxy)-phenoxy]-1-propanol]",Anti-aggregation action,[4],+
same,solubility in water (in words),[3],insoluble in water
"CC(C)(CO)Oc1ccc(Oc2ccc(Cl)cc2)cc1 [CRL 40,310, 4-(4-Chlorophenoxy)-phenoxy-isobutanol]",change in vivo at 100 mg/kg,[2]; read-out: Cholesterol (change),-32%
same,change in vivo at 100 mg/kg,[2]; [6],-20%
same,solubility in water (in words),[3],insoluble in water
"CC(C)(COS(C)(=O)=O)Oc1ccc(Oc2ccc(Cl)cc2)cc1 [CRL 40,312, 4-(4-Chlorophenoxy)-phenoxy-isobutyl mesylate]",Anti-aggregation action,[4],+
same,solubility in water (in words),[3],insoluble in water
"O=C(O)COc1ccc(Oc2ccc(Cl)cc2)cc1 [CRL 40,333, 4-(4-Chlorophenoxy)-phenoxyacetic acid]",Anti-aggregation action,[4],++
same,change in vivo at 100 mg/kg,[2]; read-out: Cholesterol (change),-20%
same,change in vivo at 100 mg/kg,[2]; [6],-24%
same,solubility in water (in words),[3],insoluble in water
"CC(C)(O)COc1ccc(Oc2ccc(Cl)cc2)cc1 [CRL 40,332, 1-[4-(4-Chlorophenoxy)-phenoxy]-2-methyl-2-propanol]",Anti-aggregation action,[4],+
same,solubility in water (in words),[3],insoluble in water
"p-(p-Chlorophenylthio)-phenylthioacetic acid [CRL 40,386]",reduction in the concentration of cholesterol in the plasma,[1]; [7],about 20%
same,reduction in the concentration of lipids in the plasma,[1]; [7],about 20%
same,reduction in the (total) lipids,"[1]; oral 100 mg/kg, 4 days",42%
same,reduction in the cholesterol,"[1]; oral 100 mg/kg, 4 days",26%
"CC(Oc1ccc(Sc2ccc(Cl)cc2)cc1)C(=O)OCCSCCCCCCCCCCSCCOC(=O)C(C)Oc1ccc(Sc2ccc(Cl)cc2)cc1 (racemic) [CRL 40,390, 3,14-Dithia-1,16-hexadecyl di-(±)-{2-[p-(p-chlorophenylthio)-phenoxy]-propionate}]",inhibition in vivo at 20 mg/kg,"[1]; Rattus norvegicus, 96 h, 4 days, read-out: reduction in the cholesterol",25%
same,inhibition in vivo at 20 mg/kg,"[1]; Rattus norvegicus, 96 h, 4 days, read-out: reduction in the lipids",25%
"CC(C)(Oc1ccc(Sc2ccc(Cl)cc2)cc1)C(=O)NCCO [CRL 40,251, N-Hydroxyethyl-4-(4-chlorophenylthio)-phenoxy-isobutyramide]","change in aggregation, collagen, latency period",[5],+23%
same,"change in aggregation, collagen, speed",[5],-21%
same,solubility in water (in words),[3],insoluble in water
